The source of these data is patent US12371421B2, “Solid forms of a PARP7 inhibitor” (Ribon Therapeutics, Inc., priority 2019, dated 2025).

Each structure is given as a SMILES string.

For test [1], the system named is NCI-H1373 lung cancer xenograft. In words: Tumor growth in human NCI-H1373 lung cancer xenograft. The format is in vivo, SCID mice. As for the experimental part:
For the NCI-H1373 study, SCID mice were inoculated subcutaneously in the right flank with NCI-H1373 cells for tumor development. After 5 days of tumor growth, mice with 89-148 mm^3 tumors were randomized into treatment groups with mean tumor volumes of 121 mm^3. […] Tumor volumes were determined by manual calipers every 2-3 days. Mean tumor volume and SEM are plotted. QD: once a day; PO: per oral administration. Statistical significance is calculated using two-way ANOVA followed by Bonferroni post-tests in which the treatment groups were compared to vehicle control (****P<0.0001).
A general note: In xenograft studies the graft and the host belong to different species.

Test [2] has as its system CT26 colon cancer syngeneic model. In words: Tumor growth in murine CT26 colon cancer syngeneic model. The format is in vivo, BALB/c mice. The note with it: BID 125-500 mg/kg or QD 500 mg/kg for 21 days; P<0.0001 vs vehicle (Day 16). Here is the method:
For the CT26 study, BALB/c mice were inoculated subcutaneously in the right flank with CT26 cells for tumor development. After 5 days of cell inoculation, mice with 36-79 mm^3 tumors were randomized into treatment groups with mean tumor volumes of 54 mm^3. […] Tumor volumes were determined by manual calipers every 2-3 days. Mean tumor volume and SEM are plotted. BID: twice a day; PO: per oral administration; QD: once a day; SC: per subcutaneous administration. […] Statistical analysis for tumor growth inhibition (TGI) was performed when at least 8 of the 10 mice were remaining in the vehicle group (Day 16). Statistical significance is calculated using two-way ANOVA followed by Bonferroni post-tests in which the treatment groups were compared to vehicle control (**** P<0.0001).

Test [3] has as its system AGS. In words: Cancer cell growth inhibition (CellTiter-Glo). The format is cell-based. The following applies: Homo sapiens, gastric adenocarcinoma, 144 hours. Here is the method: (§1) Cells were plated into 384-well plates at a pre-specified density in fetal bovine serum-containing media. Cells were treated with compound or vehicle (DMSO) 24 hrs later, and a day zero plate was collected for analysis. Test compound plates were incubated continuously for 144 hours before cells and cell growth was assessed using a luminescent cell viability assay (CellTiter-Glo, Promega). The GI50 was determined by correcting for the cell count at time zero (time of treatment) and plotting data as percent growth relative to vehicle-treated cells.
Background: Cellular ATP, detected with luciferase, serves as a proxy for viable cell number.

In test [4] the test system is COR-L105. In words: Cancer cell growth inhibition (CellTiter-Glo). Format: cell-based. The following applies: Homo sapiens; COR-L105, lung adenocarcinoma; 144 hours. As for the experimental part: as §1
Test [5] deals with GCT. The test can be described thus: Cancer cell growth inhibition (CellTiter-Glo). The following applies: Homo sapiens, undifferentiated pleiomorphic sarcoma, 144 hours. Format: cell-based. As for the experimental part:
as §1

Test [6] has as its system H4. In words: Cancer cell growth inhibition (CellTiter-Glo). The format is cell-based. The following applies: H4, neuroglioma; 144 hours. Here is the method:
as §1

Test [7] has as its system HCC1954. The test can be described thus: Cancer cell growth inhibition (CellTiter-Glo). Format: cell-based. The following applies: Homo sapiens; HCC1954, ductal breast carcinoma; 144 hours. Here is the method: as §1
The subject of test [8] is KMRC-3. The test can be described thus: Cancer cell growth inhibition (CellTiter-Glo). The format is cell-based. The note with it: KMRC-3, clear cell renal carcinoma; 144 hours. Here is the method:
as §1

Test [9] has as its system NCI-H1930. The test can be described thus: Cancer cell growth inhibition (CellTiter-Glo). Format: cell-based. The following applies: Homo sapiens; NCI-H1930, small cell lung carcinoma; 144 hours. As for the experimental part: as §1
Test [10] deals with NCI-H1944. In words: Cancer cell growth inhibition (CellTiter-Glo). The following applies: Homo sapiens; NCI-H1944, lung adenocarcinoma; 144 hours. The format is cell-based. Here is the method:
as §1

Test [11] concerns NCI-H2009. The test can be described thus: Cancer cell growth inhibition (CellTiter-Glo). Format: cell-based. The following applies: Homo sapiens; NCI-H2009, lung adenocarcinoma; 144 hours. As for the experimental part: as §1
The subject of test [12] is NCI-H2291. The test can be described thus: Cancer cell growth inhibition (CellTiter-Glo). The format is cell-based. The note with it: Homo sapiens; NCI-H2291, lung adenocarcinoma; 144 hours. Here is the method:
as §1

Test [13] relates to NUGC-3. The test can be described thus: Cancer cell growth inhibition (CellTiter-Glo). Format: cell-based. The note with it: Homo sapiens; NUGC-3, gastric adenocarcinoma; 144 hours. As for the experimental part:
as §1

In test [14] the test system is SK-LU-1. In words: Cancer cell growth inhibition (CellTiter-Glo). Format: cell-based. The note with it: Homo sapiens; SK-LU-1, lung adenocarcinoma; 144 hours. As for the experimental part: as §1
In test [15] the test system is SW900. The test can be described thus: Cancer cell growth inhibition (CellTiter-Glo). The following applies: Homo sapiens; SW900, squamous cell lung carcinoma; 144 hours. The format is cell-based. Here is the method: as §1
The subject of test [16] is TYK-nu. The test can be described thus: Cancer cell growth inhibition (CellTiter-Glo). The format is cell-based. The following applies: high grade ovarian serious adenocarcinoma, 144 hours. Here is the method: as §1
For test [17], the system named is YD-10B. In words: Cancer cell growth inhibition (CellTiter-Glo). Format: cell-based. The following applies: tongue squamous cell carcinoma, 144 hours. Here is the method: as §1

As usually defined, the GI50 is the concentration that inhibits growth by half. Low values mean more potent growth inhibition, high ones less potent growth inhibition. As to `C[C@@H](COCCC(=O)N1CCN(c2ncc(C(F)(F)F)cn2)CC1)Nc1cn[nH]c(=O)c1C(F)(F)F` [Compound 1, 5-[[(2S)-1-(3-oxo-3-[4-[5-(trifluoromethyl)pyrimidin-2-yl]piperazin-1-yl]propoxy)propan-2-yl]amino]-4-(trifluoromethyl)-2,3-dihydropyridazin-3-one], the “Tumor growth (tumor volume) vs vehicle” value is “significantly reduces tumor growth” in [1] (62.5, 125, 250, 500 mg/kg QD PO for 28 days, P<0.0001 vs vehicle) and “significantly reduces tumor growth” in [2]. Further, the Tumor regression result in test [1] (62.5 to 500 mg/kg once a day for 28 days, oral gavage, all dose levels) was “complete tumor regression”. Also, the GI50 was ≥ 1000 nM in test [3]; 100 to 1000 nM in [4]; < 100 nM in [5]; ≥ 1000 nM in test [6]; ≥ 1000 nM in test [7]; ≥ 1000 nM in test [8]. Moreover, the GI50 in [9], in test [10], in test [11], in test [12], in [13] and in [14] was ≥ 1000 nM in each case. The concentration for 50% growth inhibition (GI50) in test [15] was 100 to 1000 nM; in [16], < 100 nM; in [17], ≥ 1000 nM.
